Results: ChEMBL document CHEMBL2169758, “Evaluation of new scaffolds of myeloperoxidase inhibitors by rational design combined with high-throughput virtual screening” (J Med Chem, 2012)
Activity calls are given as the source filed them. No cut-off for these calls is given here.

Assays:
[1] = molecular target: T1, Myeloperoxidase (Homo sapiens) (UniProt P05164); assay: Inhibition of human recombinant myeloperoxidase-mediated Apo B-100 oxidation on LDL at 50 uM after 5 min by ELISA
T1 sequence (whole entry): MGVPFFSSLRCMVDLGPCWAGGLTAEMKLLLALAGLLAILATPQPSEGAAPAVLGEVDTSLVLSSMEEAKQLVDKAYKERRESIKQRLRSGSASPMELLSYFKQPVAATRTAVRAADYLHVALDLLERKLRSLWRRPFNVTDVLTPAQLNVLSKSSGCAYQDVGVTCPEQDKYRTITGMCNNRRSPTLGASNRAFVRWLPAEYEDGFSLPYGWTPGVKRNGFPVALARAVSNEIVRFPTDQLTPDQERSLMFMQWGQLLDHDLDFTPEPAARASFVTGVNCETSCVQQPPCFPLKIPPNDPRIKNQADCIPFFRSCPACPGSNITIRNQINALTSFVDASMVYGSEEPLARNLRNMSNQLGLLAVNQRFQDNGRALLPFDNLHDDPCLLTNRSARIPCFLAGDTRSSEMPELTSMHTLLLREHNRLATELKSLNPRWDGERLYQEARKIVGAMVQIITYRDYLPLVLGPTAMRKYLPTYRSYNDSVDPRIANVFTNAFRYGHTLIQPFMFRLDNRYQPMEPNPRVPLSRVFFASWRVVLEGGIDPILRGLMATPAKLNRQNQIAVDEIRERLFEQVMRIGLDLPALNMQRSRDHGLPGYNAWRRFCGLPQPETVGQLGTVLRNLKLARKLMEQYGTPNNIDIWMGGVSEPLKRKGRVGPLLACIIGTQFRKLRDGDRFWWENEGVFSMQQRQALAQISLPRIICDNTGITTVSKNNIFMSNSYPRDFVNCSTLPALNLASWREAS

[2] = molecular target: T1, Myeloperoxidase (Homo sapiens); assay: Inhibition of human recombinant myeloperoxidase-mediated Apo B-100 oxidation on LDL at 1.25 uM after 5 min by ELISA
[3] = molecular target: T1, Myeloperoxidase (Homo sapiens); assay: Inhibition of human recombinant myeloperoxidase-mediated Apo B-100 oxidation on LDL at 5 uM after 5 min by ELISA
[4] = molecular target: T1, Myeloperoxidase (Homo sapiens); assay: Inhibition of human recombinant myeloperoxidase assessed as compound 1 formation by spectrophotometry in presence of H2O2
Myeloperoxidase [5] = molecular target: T2, Myeloperoxidase (Homo sapiens, UniProt P05164); assay: Inhibition of myeloperoxidase
T2 sequence (P05164 whole entry): T1 sequence (whole entry)

[6] = molecular target: T1, Myeloperoxidase (Homo sapiens); assay: Inhibition of human recombinant myeloperoxidase assessed as compound 2 formation by spectrophotometry in presence of H2O2
Myeloperoxidase [7] = molecular target: T2, Myeloperoxidase; assay: Inhibition of recombinant human myeloperoxidase assessed as taurine chloramine production after 5 mins by spectrophotometry in presence of H2O2; type: single protein
[8] = molecular target: T1, Myeloperoxidase (Homo sapiens); assay: Ratio of apparent rate constant of compound 1 formation to apparent rate constant of compound 2 formation for human recombinant myeloperoxidase
Myeloperoxidase [9] = molecular target: T2, Myeloperoxidase; assay: Inhibition of recombinant human myeloperoxidase
Myeloperoxidase [10] = molecular target: T2, Myeloperoxidase; assay: Binding affinity to recombinant human myeloperoxidase

SMILES	inhibition [1]	inhibition [2]	inhibition [3]	Rate constant for compound I formation [4]	IC50 (Myeloperoxidase [7])	other results
COc1ccc2cc(CN(Cc3ccc(F)cc3)C(=S)NCCCN(C)C)c(O)nc2c1	inactive	inactive	inactive	9.36 ×10⁵ /M/s	–	–
CC(C)CN1C(=O)C2=NC=NC2=NC1=S	–	–	–	–	–	IC50 (Myeloperoxidase [5]): 0.87 µM
Cn1c(=O)[nH]c(=O)c2c1nc(NCCN)n2CCCOc1ccccc1	6%	11%	2.6%	5.1 ×10⁶ /M/s	0.46 µM	Activity [6]: 210 M⁻¹ s⁻¹; Ratio [8]: 24300
COc1ccccc1N1CCN(C(=O)CSc2ncccc2-c2nc3ccccc3[nH]2)CC1	inactive	inactive	inactive	–	6.2 µM	–
Oc1ccccc1CN1CCCN(Cc2ccccc2O)C1	11%	62%	4.5%	5.1 ×10⁶ /M/s	0.5 µM	–
COc1cc(OC)c(C2N=C(N)Nc3nc4ccccc4n32)cc1OC (stereo not given)	inactive	inactive	inactive	1.4 ×10⁶ /M/s	3.5 µM	Activity [6]: 1.1 M⁻¹ s⁻¹; Ratio [8]: 1.27e+06
C(=N\Nc1nc2ccccc2[nH]1)/c1c[nH]c2ccccc12	inactive	inactive	inactive	4.1 ×10⁷ /M/s	12 µM	–
CS(=O)(=O)Nc1ccc([N+](=O)[O-])cc1Oc1ccccc1 [NIMESULIDE]	–	–	–	–	–	IC50 (Myeloperoxidase [9]): 2.1 µM
NCCc1c[nH]c2ccc(F)cc12	–	–	–	–	–	IC50 (Myeloperoxidase [9]): 0.79 µM
COc1ccc2cc(CN(Cc3ccc(F)cc3)C(=S)NCCCN(C)C)c(=O)[nH]c2c1	–	–	–	–	3.8 µM	–
NC1=Nc2nc3ccccc3n2C(c2ccc(OCC(=O)O)cc2)N1 (stereo not given)	inactive	inactive	inactive	6.8 ×10⁵ /M/s	3.7 µM	–
CCC1=CCCc2cc(OC)ccc21	–	–	–	–	–	IC50 (Myeloperoxidase [5]): 3 µM
O=C(NO)c1ccccc1O [SALICYLHYDROXAMIC ACID]	–	–	–	–	–	Kd (Myeloperoxidase [10]): 2 µM; IC50 (Myeloperoxidase [9]): 3 µM
O=c1c(O)c(-c2ccc(O)c(O)c2)oc2cc(O)cc(O)c12 [QUERCETIN]	–	–	–	–	–	IC50 (Myeloperoxidase [5]): 1.27 µM
COc1cc(-c2nc(-c3ccccc3)c(-c3ccccc3)[nH]2)ccc1OCC(=O)O	inactive	inactive	inactive	1.9 ×10⁶ /M/s	0.97 µM	–
